According to patent US20260284030A1, “METHODS OF TREATING HEART FAILURE” (THE CHILDREN'S MEDICAL CENTER CORPORATION, priority 2022, published 2026):

Key:
DBA/1 J mice with CIA [1] = assay: Collagen induced arthritis (CIA) model, arthritis severity scoring; assay type: in vivo, mouse; conditions: for arthritis score: CIA mice, 10 mg/kg oral gavage once daily from day 30, n=8
Source text: (§1) DBA/1 J mice were purchased from Jackson Laboratory. All mice were kept specific pathogen free. Experimental protocols were approved by the Institutional Animal Care and Use Committee of Boston Children's Hospital (Protocol number: 20-01-4096R). To conduct a time-course study investigating onset and persistence of the cardiac dysfunction in DBA/1 J, the following groups were studied: DBA/1 J with CIA, DBA/1 J age-matched wild type, DBA/1 J with CIA treated with PAD4 inhibitor, DBA/1 J with CIA treated with 0.5% Methylcellulose (vehicle of the PAD4 inhibitor). The PAD4 specific inhibitor JBI-589 was provided by Jubilant Therapeutics (JBI-589, (R)-(3-aminopiperidin-1-yl)(2-(1-(4-fluorobenzyl)-1H-indol-2-yl)-3-methylimidazo[1,2-a]pyridin-7-yl)methanone). Mice received JBI-589 at a dose of 10 mg/kg via oral gavage for 26 consecutive days. JBI-589 was given in suspension formulation prepared using Tween-80 and 0.5% methyl cellulose. For the PAD4 inhibitor trial, mice were paired depending on their RA severity score and randomly allocated to treatment or control group. All recurring events including animal scoring and administration of inhibitor was done at similar times during the day. All groups were age and sex matched and were fed ad libitum with free access to water. All procedures conform with the NIH Guide for the Care and Use of Laboratory Animals. Experimental protocols were approved by the Institutional Animal Care and Use Committee of Boston Children's Hospital (Protocol number: 20-01-4096R).
DBA/1 J mice aged 8-9 weeks were immunized with an emulsion of 50 μl CFA (Chondrex, Inc.; Catalog no. 7023) and 50 μl of bovine type II collagen (Chondrex, Inc.; catalog no. 20012) injected intra-dermally into the base of the tail on day 0. On day 21, a booster immunization of type II collagen with Freund's incomplete adjuvant (IFA) (catalog no. 7002; Chondrex) was administered intra-dermally at a site proximal to the first injection site. Mice were assessed for development of arthritis using the semi-quantitative, mouse arthritis scoring system provided by Chondrex (chondrex.com). […]

DBA/1 J mice with CIA [2] = assay: Echocardiography of LV function and geometry in CIA mice; assay type: in vivo, mouse; conditions: n=8
Source text: as §1, with “All procedures conform with the NIH Guide for the Care and Use of Laboratory Animals. Experimental protocols were approved by the Institutional Animal Care and Use Committee of Boston Children's Hospital (Protocol number: 20-01-4096R).” left out
B-Mode, M-mode, and Doppler echocardiography were performed in DBA/1 J mice with CIA, DBA/1 J mice with CIA treated with PAD4 inhibitor or saline administration and age-matched DBA/1 J mice at day 0, day 25, day 45 and day 56 for time-course analysis of cardiac function. […] Body temperature was regulated through a heat pad and heart rate measured with an electrocardiogram, both were kept consistent between experimental groups (37° Celsius and 400-500 bpm). Echocardiography images were recorded using a Vevo-3100 imaging system with a 25-55-MHz linear probe (MX550D; VisualSonics, Toronto, Canada). Percentage of ejection fraction was calculated in parasternal long-axis view. M-mode was measured at the papillary muscle level in the short-axis view. […]

DBA/1 J mice with CIA [3] = assay: Immunostaining of LV cryosections (Collagen I, Ly6G/H3Cit, VWF, TGF-β, alpha smooth muscle actin); assay type: in vivo, mouse
Source text: as §1
Cryosections of 8-μm were fixed in 4% paraformaldehyde, permeabilized with 0.1% Triton, blocked in 3% BSA, and incubated overnight at 4° C. with the following primary antibodies: Anti-Collagen I (Abcam; ab21286); anti-Ly6G (clone 1A8; BioLegend); anti-H3Cit (Abcam; ab5103); anti-CD31 (BD Pharmingen; 553370); anti-VWF (DakoCytomation; P0226); anti-CD42b (Emfret; M040-0); anti-CD45 (Abcam; ab154885); anti-TGF beta (Abcam; ab66043); anti-alpha smooth muscle actin (Abcam; ab5694), and anti-CD68 (Abcam; ab53444). […]

DBA/1 J mice with CIA [4] = assay: Peripheral blood counts (circulating neutrophils); assay type: in vivo, mouse; conditions: any timepoint
Source text: as §1, with “All groups were age and sex matched and were fed ad libitum with free access to water. All procedures conform with the NIH Guide for the Care and Use of Laboratory Animals. Experimental protocols were approved by the Institutional Animal Care and Use Committee of Boston Children's Hospital (Protocol number: 20-01-4096R).” left out
Blood was collected from anesthetized mice via the retroorbital sinus into EDTA-coated capillary tubes and was analyzed by a Hemavet 950FS (Drew Scientific) for complete blood counts. […]

NET formation = assay: Neutrophil isolation and NETosis assay; assay type: in vivo, mouse; conditions: CIA mice; n=4; p=0.03
Source text: as §1, with “Animals. […]” for “Animals. Experimental protocols were approved by the Institutional Animal Care and Use Committee of Boston Children's Hospital (Protocol number: 20-01-4096R).”

Body weight of CIA mice = assay type: in vivo, mouse; conditions: day 56, n=8
Source text: as §1, with “Animals. […]” for “Animals. Experimental protocols were approved by the Institutional Animal Care and Use Committee of Boston Children's Hospital (Protocol number: 20-01-4096R).”

[5] = tested on: arthritis in a mouse model; conditions: prophylactic treatment; cited from earlier work
[6] = tested on: primary tumor and metastasis; conditions: cancer; cited from earlier work

Cc1c(-c2cc3ccccc3n2Cc2ccc(F)cc2)nc2cc(C(=O)N3CCC[C@@H](N)C3)ccn12 [JBI-589, (R)-(3-aminopiperidin-1-yl)(2-(1-(4-fluorobenzyl)-1H-indol-2-yl)-3-methylimidazo[1,2-a]pyridin-7-yl)methanone]
arthritis score (DBA/1 J mice with CIA [1]; Day 36): 5±0.8
arthritis score (DBA/1 J mice with CIA [1]; day 44, median (quartiles)): 9 (7-11)
effect on RA (arthritis) (DBA/1 J mice with CIA [1]; twice daily regime (unpublished data)): significantly inhibits RA
diastolic function as reflected by the E/A ratio (DBA/1 J mice with CIA [2]; CIA mice treated 26 consecutive days, 10 mg/kg once daily oral): comparable to healthy mice
E/A ratio, higher than the placebo CIA group (DBA/1 J mice with CIA [2]; CIA mice treated 26 consecutive days, 10 mg/kg once daily oral, p<0.0001): 40%
systolic left ventricular function vs vehicle (DBA/1 J mice with CIA [2]; CIA mice treated 26 days, p=0.09): no difference
collagen type 1 deposition in the LV, lower than the vehicle treated control (DBA/1 J mice with CIA [3]; CIA mice treated 26 days, n=5, p=0.02): 5 times
myofibroblast concentration (alpha-smooth-muscle actin) (DBA/1 J mice with CIA [3]; CIA mice, n=5, p=0.02): reduced
deposition of TGF-β in heart tissue (DBA/1 J mice with CIA [3]; CIA mice, n=6, p=0.003): reduced
number of circulating neutrophils vs vehicle (DBA/1 J mice with CIA [4]): no difference
NET formation (NET formation): reduced
body weight (health parameter) (Body weight of CIA mice): improved
effect on arthritis [5]: alleviates arthritis
neutrophil recruitment [6]: blocking neutrophil recruitment into the primary tumor and metastasis
